Holding throughout (assay): relative viability (nuclei count vs DMSO), 5 days (fraction); higher = more cells survive
Compound in the experiment “VE-821 + OSI-027”: CS(=O)(=O)c1ccc(-c2cnc(N)c(C(=O)Nc3ccccc3)n2)cc1 [VE-821] + COc1cccc2cc(-c3nc([C@H]4CC[C@H](C(=O)O)CC4)n4ncnc(N)c34)[nH]c12 [OSI-027] (partner 0.5 µM)
Put shortly: (§1)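 Lung cancer cell lines were pin-tool dosed in 1536-well plates on the day after seeding, with either a lone drug or a fixed anchor-drug dose plus five library-drug doses (not always all listed) in √10 steps. Nuclei were counted on 4× images after 5 days. Relative viability is the ratio of treated-well to vehicle-well nuclei counts, with each value a median of duplicate plates.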

Compound in the experiment “VE-821 + Decitabine”: CS(=O)(=O)c1ccc(-c2cnc(N)c(C(=O)Nc3ccccc3)n2)cc1 [VE-821] + Nc1ncn([C@H]2C[C@H](O)[C@@H](CO)O2)c(=O)n1 [Decitabine] (partner 2 µM)
Summed up:
as §1

Compound in the experiment “Vismodegib + Decitabine”: CS(=O)(=O)c1ccc(C(=O)Nc2ccc(Cl)c(-c3ccccn3)c2)c(Cl)c1 [Vismodegib] + Nc1ncn([C@H]2C[C@H](O)[C@@H](CO)O2)c(=O)n1 [Decitabine] (partner 2 µM)
Put shortly: as §1

Compound in the experiment “Ruxolitinib + Foretinib”: N#CC[C@H](C1CCCC1)n1cc(-c2ncnc3[nH]ccc23)cn1 [Ruxolitinib] + COc1cc2c(Oc3ccc(NC(=O)C4(C(=O)Nc5ccc(F)cc5)CC4)cc3F)ccnc2cc1OCCCN1CCOCC1 [Foretinib] (partner 0.25 µM)
Put shortly: as §1

Regarding PC-3 [JPC-3], the relative viability was determined as 0.89 with VE-821 + OSI-027 (first compound 0.08 µM); 0.724 with VE-821 + OSI-027 (first compound 0.253 µM); 0.887 with VE-821 + OSI-027 (first compound 0.8 µM); 0.829 in the experiment with VE-821 + OSI-027 (first compound 2.53 µM); 0.749 with VE-821 + OSI-027 (first compound 8 µM); 0.87 with VE-821 + Decitabine (first compound 0.08 µM). Further, the relative viability in the experiment with VE-821 + Decitabine (first compound 0.253 µM) came out at 0.832; in the experiment with VE-821 + Decitabine (first compound 0.8 µM), 0.95; with VE-821 + Decitabine (first compound 2.53 µM), 0.912; in the experiment with VE-821 + Decitabine (first compound 8 µM), 0.799; in the experiment with Vismodegib + Decitabine (first compound 0.08 µM) it was 0.863; with Vismodegib + Decitabine (first compound 0.253 µM) it was 0.838. The relative viability came out at 0.904 with Vismodegib + Decitabine (first compound 0.8 µM); 0.814 with Vismodegib + Decitabine (first compound 2.53 µM); 0.864 with Vismodegib + Decitabine (first compound 8 µM); 0.859 in the experiment with Ruxolitinib + Foretinib (first compound 0.08 µM); 1.01 with Ruxolitinib + Foretinib (first compound 0.253 µM); 0.975 with Ruxolitinib + Foretinib (first compound 0.8 µM). Further, the relative viability was 0.957 in the experiment with Ruxolitinib + Foretinib (first compound 2.53 µM) and 0.871 in the experiment with Ruxolitinib + Foretinib (first compound 8 µM).

Take PC-14: the relative viability with VE-821 + OSI-027 (first compound 0.08 µM) worked out at 1.01; with VE-821 + OSI-027 (first compound 0.253 µM) it was 0.762; with VE-821 + OSI-027 (first compound 0.8 µM) it was 0.913; with VE-821 + OSI-027 (first compound 2.53 µM), 0.824; with VE-821 + OSI-027 (first compound 8 µM) it was 0.336; with VE-821 + Decitabine (first compound 0.08 µM), 0.221. The relative viability in the experiment with VE-821 + Decitabine (first compound 0.253 µM) is 0.241; with VE-821 + Decitabine (first compound 0.8 µM) it was 0.222; in the experiment with VE-821 + Decitabine (first compound 2.53 µM), 0.213; with VE-821 + Decitabine (first compound 8 µM), 0.126; with Vismodegib + Decitabine (first compound 0.08 µM), 0.224; with Vismodegib + Decitabine (first compound 0.253 µM), 0.198. Moreover, the relative viability worked out at 0.237 in the experiment with Vismodegib + Decitabine (first compound 0.8 µM); 0.199 in the experiment with Vismodegib + Decitabine (first compound 2.53 µM); 0.234 with Vismodegib + Decitabine (first compound 8 µM); 0.947 with Ruxolitinib + Foretinib (first compound 0.253 µM); 0.971 with Ruxolitinib + Foretinib (first compound 0.8 µM); 0.875 in the experiment with Ruxolitinib + Foretinib (first compound 2.53 µM). Also, in the experiment with Ruxolitinib + Foretinib (first compound 8 µM), the relative viability worked out at 0.828.

For RERF-LC-KJ, the relative viability with VE-821 + OSI-027 (first compound 0.08 µM) was determined as 0.548; with VE-821 + OSI-027 (first compound 0.253 µM), 0.523; with VE-821 + OSI-027 (first compound 0.8 µM), 0.535; with VE-821 + OSI-027 (first compound 2.53 µM) it was 0.614; with VE-821 + OSI-027 (first compound 8 µM) it was 0.49; with VE-821 + Decitabine (first compound 0.08 µM), 0.731. Also, the relative viability was determined as 0.681 with VE-821 + Decitabine (first compound 0.253 µM); 0.633 with VE-821 + Decitabine (first compound 0.8 µM); 0.725 with VE-821 + Decitabine (first compound 2.53 µM); 0.609 with VE-821 + Decitabine (first compound 8 µM); 0.704 in the experiment with Vismodegib + Decitabine (first compound 0.08 µM); 0.7 with Vismodegib + Decitabine (first compound 0.253 µM). Also, the relative viability with Vismodegib + Decitabine (first compound 0.8 µM) was 0.765; in the experiment with Vismodegib + Decitabine (first compound 2.53 µM), 0.654; with Vismodegib + Decitabine (first compound 8 µM), 0.633; in the experiment with Ruxolitinib + Foretinib (first compound 0.08 µM), 0.862; in the experiment with Ruxolitinib + Foretinib (first compound 0.253 µM), 0.95; with Ruxolitinib + Foretinib (first compound 0.8 µM), 0.914. Further, the relative viability is 0.921 in the experiment with Ruxolitinib + Foretinib (first compound 2.53 µM) and 0.927 in the experiment with Ruxolitinib + Foretinib (first compound 8 µM).

For the cell line SK-LU-1, the relative viability with VE-821 + OSI-027 (first compound 0.08 µM) was 0.316; in the experiment with VE-821 + OSI-027 (first compound 0.253 µM) it was 0.316; in the experiment with VE-821 + OSI-027 (first compound 0.8 µM), 0.312; in the experiment with VE-821 + OSI-027 (first compound 2.53 µM), 0.268; with VE-821 + OSI-027 (first compound 8 µM), 0.193; in the experiment with VE-821 + Decitabine (first compound 0.08 µM), 0.684. Also, the relative viability with VE-821 + Decitabine (first compound 0.253 µM) stood at 0.671; with VE-821 + Decitabine (first compound 0.8 µM), 0.522; with VE-821 + Decitabine (first compound 2.53 µM), 0.612; with VE-821 + Decitabine (first compound 8 µM) it was 0.475; with Vismodegib + Decitabine (first compound 0.08 µM), 0.619; in the experiment with Vismodegib + Decitabine (first compound 0.253 µM), 0.639. For the same cell line, the relative viability in the experiment with Vismodegib + Decitabine (first compound 0.8 µM) came out at 0.588; in the experiment with Vismodegib + Decitabine (first compound 2.53 µM) it was 0.618; in the experiment with Vismodegib + Decitabine (first compound 8 µM), 0.607; in the experiment with Ruxolitinib + Foretinib (first compound 0.08 µM), 0.813; with Ruxolitinib + Foretinib (first compound 0.253 µM) it was 0.806; in the experiment with Ruxolitinib + Foretinib (first compound 0.8 µM), 0.876. Also, the relative viability is 0.75 with Ruxolitinib + Foretinib (first compound 2.53 µM) and 0.676 in the experiment with Ruxolitinib + Foretinib (first compound 8 µM).

As for SK-MES-1, the relative viability with VE-821 + OSI-027 (first compound 0.08 µM) was 0.665; with VE-821 + OSI-027 (first compound 0.253 µM) it was 0.558; with VE-821 + OSI-027 (first compound 0.8 µM), 0.53; with VE-821 + OSI-027 (first compound 2.53 µM), 0.533; with VE-821 + OSI-027 (first compound 8 µM) it was 0.233; with VE-821 + Decitabine (first compound 0.08 µM), 0.373. Besides, the relative viability with VE-821 + Decitabine (first compound 0.253 µM) amounted to 0.406; with VE-821 + Decitabine (first compound 0.8 µM) it was 0.38; in the experiment with VE-821 + Decitabine (first compound 2.53 µM) it was 0.361; in the experiment with VE-821 + Decitabine (first compound 8 µM), 0.284; with Vismodegib + Decitabine (first compound 0.08 µM), 0.401; in the experiment with Vismodegib + Decitabine (first compound 0.253 µM), 0.341. The relative viability was determined as 0.435 in the experiment with Vismodegib + Decitabine (first compound 0.8 µM); 0.374 with Vismodegib + Decitabine (first compound 2.53 µM); 0.443 with Vismodegib + Decitabine (first compound 8 µM); 0.927 in the experiment with Ruxolitinib + Foretinib (first compound 0.08 µM); 0.714 in the experiment with Ruxolitinib + Foretinib (first compound 0.253 µM); 0.955 in the experiment with Ruxolitinib + Foretinib (first compound 0.8 µM). The results for the relative viability in the experiment with Ruxolitinib + Foretinib (first compound 2.53 µM) and in the experiment with Ruxolitinib + Foretinib (first compound 8 µM) were 0.788 and 0.768, respectively.

On to SW 900, for which the relative viability is 0.459 with VE-821 + OSI-027 (first compound 0.08 µM); 0.444 with VE-821 + OSI-027 (first compound 0.253 µM); 0.527 with VE-821 + OSI-027 (first compound 0.8 µM); 0.552 with VE-821 + OSI-027 (first compound 2.53 µM); 0.382 with VE-821 + OSI-027 (first compound 8 µM); 0.471 with VE-821 + Decitabine (first compound 0.08 µM). Also, the relative viability with VE-821 + Decitabine (first compound 0.253 µM) stood at 0.456; in the experiment with VE-821 + Decitabine (first compound 0.8 µM), 0.472; with VE-821 + Decitabine (first compound 2.53 µM), 0.469; in the experiment with VE-821 + Decitabine (first compound 8 µM) it was 0.386; with Vismodegib + Decitabine (first compound 0.08 µM), 0.404; with Vismodegib + Decitabine (first compound 0.253 µM), 0.417. The relative viability with Vismodegib + Decitabine (first compound 0.8 µM) is 0.429; with Vismodegib + Decitabine (first compound 8 µM), 0.481; in the experiment with Ruxolitinib + Foretinib (first compound 0.08 µM) it was 0.88; with Ruxolitinib + Foretinib (first compound 0.253 µM), 0.806; with Ruxolitinib + Foretinib (first compound 0.8 µM) it was 1.01; with Ruxolitinib + Foretinib (first compound 2.53 µM), 0.912. For the same cell line, the relative viability in the experiment with Ruxolitinib + Foretinib (first compound 8 µM) was found to be 1.11.

For SW 1573, the relative viability with VE-821 + OSI-027 (first compound 0.08 µM) turned out to be 0.549; with VE-821 + OSI-027 (first compound 0.253 µM), 0.853; with VE-821 + OSI-027 (first compound 0.8 µM), 0.649; with VE-821 + OSI-027 (first compound 2.53 µM), 0.823; in the experiment with VE-821 + OSI-027 (first compound 8 µM), 0.453; with VE-821 + Decitabine (first compound 0.08 µM), 0.538. Besides, the relative viability in the experiment with VE-821 + Decitabine (first compound 0.253 µM) was 0.458; with VE-821 + Decitabine (first compound 0.8 µM), 0.433; with VE-821 + Decitabine (first compound 2.53 µM), 0.511; with VE-821 + Decitabine (first compound 8 µM), 0.416; in the experiment with Vismodegib + Decitabine (first compound 0.253 µM), 0.425; in the experiment with Vismodegib + Decitabine (first compound 0.8 µM), 0.509. Moreover, the relative viability with Vismodegib + Decitabine (first compound 2.53 µM) is 0.519; in the experiment with Vismodegib + Decitabine (first compound 8 µM) it was 0.615; with Ruxolitinib + Foretinib (first compound 0.08 µM), 0.979; with Ruxolitinib + Foretinib (first compound 0.253 µM) it was 0.916; with Ruxolitinib + Foretinib (first compound 0.8 µM), 1.1; with Ruxolitinib + Foretinib (first compound 2.53 µM), 0.834. Also, in the experiment with Ruxolitinib + Foretinib (first compound 8 µM), the relative viability was 0.885.
